# Source: ChEMBL document CHEMBL3885881, “DrugMatrix”
# Species on record: Rattus norvegicus
# Assay: DrugMatrix - Regimen: Daily Repeat
# Assay type: toxicity, organism-based, Sprague-Dawley
# Parameters: regimen Daily Repeat, gender Male, age 6-8 weeks
# Conditions: in vivo, sc, route subcutaneous, […]; for ABSOLUTE BASOPHIL / ABSOLUTE EOSINOPHIL / ABSOLUTE LYMPHOCYTE / ABSOLUTE MONOCYTE / ABSOLUTE SEGMENTED NEUTROPHIL / BASOPHIL / EOSINOPHIL / ERYTHROCYTE COUNT / HEMATOCRIT / HEMOGLOBIN / LEUKOCYTE COUNT / LYMPHOCYTE / MEAN CORPUSCULAR HEMOGLOBIN / MEAN CORPUSCULAR HEMOGLOBIN CONCENTRATION / MEAN CORPUSCULAR VOLUME / MONOCYTE / NEUTROPHIL / NUCLEATED RED BLOOD CELLS / PLATELET COUNT: tissue Blood; for ALANINE AMINOTRANSFERASE / ALBUMIN / ALKALINE PHOSPHATASE / ASPARTATE AMINOTRANSFERASE / BLOOD UREA NITROGEN / CARBON DIOXIDE / CHLORIDE / CHOLESTEROL / CREATINE PHOSPHOKINASE / CREATININE / GLUCOSE / LACTATE DEHYDROGENASE / LIPASE / PHOSPHORUS / POTASSIUM / SODIUM / TOTAL BILIRUBIN / TOTAL PROTEIN / URIC ACID: tissue Plasma
# [1] = 24 mg/kg, 72 h, dose level High, time 3 day
# [2] = 24 mg/kg, 120 h, dose level High, time 5 day
# [3] = 72 h, dose 9.6 mg/Kg, dose level Low, time 3 day
# [4] = 120 h, dose 9.6 mg/Kg, dose level Low, time 5 day
smiles,measurement,setting,value
CCCCNc1ccc(C(=O)OCCN(C)C)cc1 [TETRACAINE],ABSOLUTE BASOPHIL,[1],0 CELLS/uL
same,ABSOLUTE EOSINOPHIL,[1],116 CELLS/uL
same,ABSOLUTE LYMPHOCYTE,[1],16844.33 CELLS/uL
same,ABSOLUTE MONOCYTE,[1],146.67 CELLS/uL
same,ABSOLUTE SEGMENTED NEUTROPHIL,[1],1826.33 CELLS/uL
same,BASOPHIL,[1],0%
same,EOSINOPHIL,[1],0.67%
same,ERYTHROCYTE COUNT,[1],5.64 x10E6/uL
same,HEMATOCRIT,[1],36.43%
same,HEMOGLOBIN,[1],14.5 G/DL
same,LEUKOCYTE COUNT,[1],18.93 x10E3/uL
same,LYMPHOCYTE,[1],89%
same,MEAN CORPUSCULAR HEMOGLOBIN,[1],25.67 pg
same,MEAN CORPUSCULAR HEMOGLOBIN CONCENTRATION,[1],39.83 G/DL
same,MEAN CORPUSCULAR VOLUME,[1],64.53 fL
same,MONOCYTE,[1],0.67%
same,NEUTROPHIL,[1],9.67%
same,NUCLEATED RED BLOOD CELLS,[1],0.33 /100WBC
same,PLATELET COUNT,[1],1264.67 x10E3/uL
same,ALANINE AMINOTRANSFERASE,[1],68.67 u/L
same,ALBUMIN,[1],4.23 G/DL
same,ALKALINE PHOSPHATASE,[1],328 u/L
same,ASPARTATE AMINOTRANSFERASE,[1],81 u/L
same,BLOOD UREA NITROGEN,[1],17 mg/dL
same,CARBON DIOXIDE,[1],22.67 mmol/L
same,CHLORIDE,[1],104 MEQ/L
same,CHOLESTEROL,[1],77 mg/dL
same,CREATINE PHOSPHOKINASE,[1],175.67 u/L
same,CREATININE,[1],0.27 mg/dL
same,GLUCOSE,[1],177.33 mg/dL
same,LACTATE DEHYDROGENASE,[1],88.67 u/L
same,LIPASE,[1],9.67 u/L
same,PHOSPHORUS,[1],12.97 mg/dL
same,POTASSIUM,[1],6.72 MEQ/L
same,SODIUM,[1],147.97 MEQ/L
same,TOTAL BILIRUBIN,[1],0.27 mg/dL
same,TOTAL PROTEIN,[1],6.03 G/DL
same,URIC ACID,[1],1.53 mg/dL
same,ABSOLUTE BASOPHIL,[2],0 CELLS/uL
same,ABSOLUTE EOSINOPHIL,[2],49.33 CELLS/uL
same,ABSOLUTE LYMPHOCYTE,[2],12917.33 CELLS/uL
same,ABSOLUTE MONOCYTE,[2],97.33 CELLS/uL
same,ABSOLUTE SEGMENTED NEUTROPHIL,[2],1669.33 CELLS/uL
same,BASOPHIL,[2],0%
same,EOSINOPHIL,[2],0.33%
same,ERYTHROCYTE COUNT,[2],5.38 x10E6/uL
same,HEMATOCRIT,[2],33.97%
same,HEMOGLOBIN,[2],13.67 G/DL
same,LEUKOCYTE COUNT,[2],14.73 x10E3/uL
same,LYMPHOCYTE,[2],87.67%
same,MEAN CORPUSCULAR HEMOGLOBIN,[2],25.47 pg
same,MEAN CORPUSCULAR HEMOGLOBIN CONCENTRATION,[2],40.3 G/DL
same,MEAN CORPUSCULAR VOLUME,[2],63.2 fL
same,MONOCYTE,[2],0.67%
same,NEUTROPHIL,[2],11.33%
same,NUCLEATED RED BLOOD CELLS,[2],0.33 /100WBC
same,PLATELET COUNT,[2],1410.33 x10E3/uL
same,ALANINE AMINOTRANSFERASE,[2],58.33 u/L
same,ALBUMIN,[2],3.93 G/DL
same,ALKALINE PHOSPHATASE,[2],329 u/L
same,ASPARTATE AMINOTRANSFERASE,[2],92.67 u/L
same,BLOOD UREA NITROGEN,[2],14.67 mg/dL
same,CARBON DIOXIDE,[2],23 mmol/L
same,CHLORIDE,[2],104.67 MEQ/L
same,CHOLESTEROL,[2],71 mg/dL
same,CREATINE PHOSPHOKINASE,[2],172 u/L
same,CREATININE,[2],0.22 mg/dL
same,GLUCOSE,[2],160.67 mg/dL
same,LACTATE DEHYDROGENASE,[2],83.67 u/L
same,LIPASE,[2],9.67 u/L
same,PHOSPHORUS,[2],12.47 mg/dL
same,POTASSIUM,[2],6.53 MEQ/L
same,SODIUM,[2],146.2 MEQ/L
same,TOTAL BILIRUBIN,[2],0.23 mg/dL
same,TOTAL PROTEIN,[2],5.73 G/DL
same,URIC ACID,[2],1.73 mg/dL
same,ABSOLUTE BASOPHIL,[3],0 CELLS/uL
same,ABSOLUTE EOSINOPHIL,[3],226.67 CELLS/uL
same,ABSOLUTE LYMPHOCYTE,[3],14925.33 CELLS/uL
same,ABSOLUTE MONOCYTE,[3],512.67 CELLS/uL
same,ABSOLUTE SEGMENTED NEUTROPHIL,[3],768.67 CELLS/uL
same,BASOPHIL,[3],0%
same,EOSINOPHIL,[3],1.67%
same,ERYTHROCYTE COUNT,[3],5.36 x10E6/uL
same,HEMATOCRIT,[3],34.5%
same,HEMOGLOBIN,[3],13.5 G/DL
same,LEUKOCYTE COUNT,[3],16.43 x10E3/uL
same,LYMPHOCYTE,[3],90.67%
same,MEAN CORPUSCULAR HEMOGLOBIN,[3],25.17 pg
same,MEAN CORPUSCULAR HEMOGLOBIN CONCENTRATION,[3],39.17 G/DL
same,MEAN CORPUSCULAR VOLUME,[3],64.4 fL
same,MONOCYTE,[3],2.33%
same,NEUTROPHIL,[3],5.33%
same,NUCLEATED RED BLOOD CELLS,[3],0.33 /100WBC
same,PLATELET COUNT,[3],1368.67 x10E3/uL
same,ALANINE AMINOTRANSFERASE,[3],52.33 u/L
same,ALBUMIN,[3],4.1 G/DL
same,ALKALINE PHOSPHATASE,[3],338.33 u/L
same,ASPARTATE AMINOTRANSFERASE,[3],87.67 u/L
same,BLOOD UREA NITROGEN,[3],15 mg/dL
same,CARBON DIOXIDE,[3],22.67 mmol/L
same,CHLORIDE,[3],104.67 MEQ/L
same,CHOLESTEROL,[3],79.67 mg/dL
same,CREATINE PHOSPHOKINASE,[3],530.33 u/L
same,CREATININE,[3],0.16 mg/dL
same,GLUCOSE,[3],187 mg/dL
same,LACTATE DEHYDROGENASE,[3],122.67 u/L
same,LIPASE,[3],9.33 u/L
same,PHOSPHORUS,[3],13.8 mg/dL
same,POTASSIUM,[3],5.89 MEQ/L
same,SODIUM,[3],147.2 MEQ/L
same,TOTAL BILIRUBIN,[3],0.2 mg/dL
same,TOTAL PROTEIN,[3],5.73 G/DL
same,URIC ACID,[3],1.9 mg/dL
same,ABSOLUTE BASOPHIL,[4],0 CELLS/uL
same,ABSOLUTE EOSINOPHIL,[4],0 CELLS/uL
same,ABSOLUTE LYMPHOCYTE,[4],14217 CELLS/uL
same,ABSOLUTE MONOCYTE,[4],0 CELLS/uL
same,ABSOLUTE SEGMENTED NEUTROPHIL,[4],2349.67 CELLS/uL
same,BASOPHIL,[4],0%
same,EOSINOPHIL,[4],0%
same,ERYTHROCYTE COUNT,[4],5.59 x10E6/uL
same,HEMATOCRIT,[4],35.87%
same,HEMOGLOBIN,[4],14.33 G/DL
same,LEUKOCYTE COUNT,[4],16.57 x10E3/uL
same,LYMPHOCYTE,[4],85.67%
same,MEAN CORPUSCULAR HEMOGLOBIN,[4],25.6 pg
same,MEAN CORPUSCULAR HEMOGLOBIN CONCENTRATION,[4],39.97 G/DL
same,MEAN CORPUSCULAR VOLUME,[4],64.13 fL
same,MONOCYTE,[4],0%
same,NEUTROPHIL,[4],14.33%
same,NUCLEATED RED BLOOD CELLS,[4],0.33 /100WBC
same,PLATELET COUNT,[4],1151 x10E3/uL
same,ALANINE AMINOTRANSFERASE,[4],58 u/L
same,ALBUMIN,[4],4.1 G/DL
same,ALKALINE PHOSPHATASE,[4],278.67 u/L
same,ASPARTATE AMINOTRANSFERASE,[4],76.33 u/L
same,BLOOD UREA NITROGEN,[4],17.67 mg/dL
same,CARBON DIOXIDE,[4],23.33 mmol/L
same,CHLORIDE,[4],103.67 MEQ/L
same,CHOLESTEROL,[4],76.33 mg/dL
same,CREATINE PHOSPHOKINASE,[4],262.33 u/L
same,CREATININE,[4],0.16 mg/dL
same,GLUCOSE,[4],153.67 mg/dL
same,LACTATE DEHYDROGENASE,[4],205 u/L
same,LIPASE,[4],9.67 u/L
same,PHOSPHORUS,[4],12.83 mg/dL
same,POTASSIUM,[4],6.7 MEQ/L
same,SODIUM,[4],147.8 MEQ/L
same,TOTAL BILIRUBIN,[4],0.23 mg/dL
same,TOTAL PROTEIN,[4],5.73 G/DL
same,URIC ACID,[4],1.53 mg/dL
